From publication PMC11373361, “Expanding the inhibitor space of the WWP1 and WWP2 HECT E3 ligases” (Journal of Enzyme Inhibition and Medicinal Chemistry, 2024)
“And” between values parts separate entries of the source, which are not always exact repeats. Identical values can stand only once. One block for each compound: values may come before it.

What was measured:
WWP2-FL = molecular target: T1, WWP2-FL (Homo sapiens, UniProt O00308); test: WWP2 ELISA autoubiquitination assay; assay type: biochemical; details: for relative activity, single-shot autoubiquitination: 1 mM compound, hit threshold less than 50% relative activity; for relative autoubiquitination activity, single-shot: 500 µM compound, normalised to 0% and 100% controls
T1 construct: full-length WWP2 (WWP2-FL); made in house; host or cells: E. coli BL21-CodonPlus RP (plasmid pGEX2T-WWP2-FL, Dr Andrew Chantry's Lab)
Procedure: (§1) Cell lysate containing His-tagged WWP1-L34H or GST-tagged WWP2-FL proteins were incubated on either 96-well Clear Pierce glutathione or nickel-coated plates for 1 h in PBS. Reaction mixtures of either 3 ng/well GST-Uba1 and 15 ng/well UbcH7 or 10 ng/well His-Uba1 and 150 ng/well His-UbcH7 were incubated together in 25 mM Tris pH 8.0, 100 mM NaCl, 4 mM MgCl2 containing 60 ng/well FLAG-ubiquitin and 1.25 mM ATP for 40 min. A prior 1% BSA plate blocking step is required for nickel-coated plates. After plate washing, 2 μL of the compound was added at the desired concentration (0.1 – 1% DMSO) followed by 18 μL of the reaction mixture. This was then incubated for 2 h with 0% and 100% controls before 100 μL of anti-FLAG M2-Peroxidase HRP (1: 10,000 PBST) was added to each well and incubated for 1 h. Finally, 100 μL of 1 × TMB substrate solution (Invitrogen) was added to each well and incubated for up to 10 min until sufficient blue colour change was observed. To stop the reaction, 100 μL of 1 M HCl was added. GST-tagged Uba1 counter-assay followed a similar protocol first incubating cell lysate for 1 h before adding 20 µL of reaction mixture containing 60 ng/well FLAG-ubiquitin, 1.25 mM ATP, and 1 mM compound at 1% DMSO. His-tagged UbcH7 counter-assays preincubated 3 ng/well GST-Uba1 and 200 ng/well UbcH7 with the reaction mixture components (60 ng/well FLAG-ubiquitin, 1.25 mM ATP, and 1 mM compound at 1% DMSO) for 1 h before incubating onto nickel-coated plates for a further 1 h. All other steps were followed. The plates were washed three times with PBST (and 15 mM Imidazole) between each step. Quantification was measured by absorbance read at 450 nm, standardised to the 0% and 100% activity controls. A visual representation of the assay steps is shown in SI Figure S13. All assay optimisations have been previously reported by Watt and colleagues. IC50 non-linear regression curves were calculated in GraphPad v10.2 (Prism).
(§2) The DSF hit compounds were initially screened using a single-shot WWP1 and WWP2 ELISA autoubiquitination assay at 500 µM compound (1% DMSO), measuring inhibition against their relative autoubiquitination activity following protocols previously described. […] Four NSC compounds for WWP1 (13151, 73735, 85433 & 637578) and three NSC compounds for WWP2 (26112, 57103 & 217913) were initially selected having a threshold of less than 50% relative activity when compared to 0% and 100% controls (Figure 2).
(§3) The resulting synthesised analogues were screened using the single-shot ELISA autoubiquitination assay at 1 mM compound concentration (1% DMSO) before IC50 values were calculated for hit compounds (SI Figure 2–4).
ELISA Autoubiquitination Assay
Figure S13. Schematic diagram of the WWP2 ELISA autoubiquitination assay. (1a) Immobilisation of GST-Tagged WWP2 on glutathione coated plates. The GST-tagged (green) WWP2-FL (orange) is bound to glutathione (black), further linked via an SSMPB linker (pink) bound to haemoglobin (red). (1b) Reaction mixture of His-E1, His-E2 and flag-tagged Ub. Flag-tagged (red) Ub (dark pink) is first charged to Uba1/E1 (light pink) using ATP (blue) and then transferred to UbcH7/E2 (light brown).
(2) Ub charged E2 incubation with immobilised WWP2. UbcH7/E2 transfers flag-tagged Ub to WWP2 before WWP2 auto-ubiquitination occurs in the absence or presence of compounds (blue). (3) Incubation of recombinant HRP anti-flag antibody with auto-ubiquitinated WWP2. Anti-flag antibody (purple) containing recombinant HRP (orange) associates with the flag-tagged Ub. (4) HRP-mediated oxidation of TMB.
Single-electron oxidation of TMB by HRP in the presence of HO creates first a blue colour change, before acidification results in a yellow colour change (450 nm) stopping

WWP1-L34H = molecular target: T2, WWP1-L34H (Homo sapiens, UniProt Q9H0M0); test: WWP1 ELISA autoubiquitination assay; assay type: biochemical; details: for relative activity, single-shot autoubiquitination: 1 mM compound, hit threshold less than 50% relative activity; for relative autoubiquitination activity, single-shot: 500 µM compound, normalised to 0% and 100% controls
T2 construct: WWP1- 2,3-linker-WW3-WW4-HECT (WWP1-L34H); made in house; host or cells: E. coli BL21-CodonPlus RP (plasmid pET32a-WWP1-L34H, gifted by Dr Wenyu Wen)
Procedure: as §1, §2, §3

UbcH7 = molecular target: T3, UbcH7 (Homo sapiens, UniProt P68036); test: UbcH7 counter autoubiquitination assay; assay type: biochemical; details: 1 mM compound, 1% DMSO, in Table S6 73735 and 217913 synthesised
T3 construct: made in house; host or cells: E. coli BL21-CodonPlus RP (plasmid pET3a-UbcH7 His, gifted by Professor Martin Scheffner)
Procedure: as §1
These preliminary hit compounds were further screened in dose-dependent ELISA autoubiquitination assays from 500 µM − 5 nM, with three NSC compounds for WWP1 (13151, 73735 & 85433) and only two NSC compounds for WWP2 (57103 & 217913) showing a dose-response (SI Table S4). […] To ensure the intended target was being inhibited and not the […] Uba1 (E1) and UbcH7 (E2) enzymes used in the catalytic cascade of the assay, a counter autoubiquitination screen was utilised. Upon counter-activity analysis, only with NSC-217913 did UbcH7 retain more than 90% activity and so this was selected as the sole validated hit compound from our inhibition screen (SI Table S6).

[1] = sample used directly from the NCI library, dose range 500 µM - 5 nM
[2] = synthesised compound, WWP1-L34H, 1% DMSO, 95% CI range in brackets
[3] = synthesised compound, WWP2-FL, 1% DMSO, 95% CI range in brackets

T3 sequence (P68036 whole entry): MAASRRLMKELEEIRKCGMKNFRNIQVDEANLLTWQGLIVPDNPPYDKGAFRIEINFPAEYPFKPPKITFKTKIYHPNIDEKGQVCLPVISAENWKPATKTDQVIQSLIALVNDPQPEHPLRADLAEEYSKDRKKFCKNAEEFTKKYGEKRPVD
T1 sequence (O00308 whole entry): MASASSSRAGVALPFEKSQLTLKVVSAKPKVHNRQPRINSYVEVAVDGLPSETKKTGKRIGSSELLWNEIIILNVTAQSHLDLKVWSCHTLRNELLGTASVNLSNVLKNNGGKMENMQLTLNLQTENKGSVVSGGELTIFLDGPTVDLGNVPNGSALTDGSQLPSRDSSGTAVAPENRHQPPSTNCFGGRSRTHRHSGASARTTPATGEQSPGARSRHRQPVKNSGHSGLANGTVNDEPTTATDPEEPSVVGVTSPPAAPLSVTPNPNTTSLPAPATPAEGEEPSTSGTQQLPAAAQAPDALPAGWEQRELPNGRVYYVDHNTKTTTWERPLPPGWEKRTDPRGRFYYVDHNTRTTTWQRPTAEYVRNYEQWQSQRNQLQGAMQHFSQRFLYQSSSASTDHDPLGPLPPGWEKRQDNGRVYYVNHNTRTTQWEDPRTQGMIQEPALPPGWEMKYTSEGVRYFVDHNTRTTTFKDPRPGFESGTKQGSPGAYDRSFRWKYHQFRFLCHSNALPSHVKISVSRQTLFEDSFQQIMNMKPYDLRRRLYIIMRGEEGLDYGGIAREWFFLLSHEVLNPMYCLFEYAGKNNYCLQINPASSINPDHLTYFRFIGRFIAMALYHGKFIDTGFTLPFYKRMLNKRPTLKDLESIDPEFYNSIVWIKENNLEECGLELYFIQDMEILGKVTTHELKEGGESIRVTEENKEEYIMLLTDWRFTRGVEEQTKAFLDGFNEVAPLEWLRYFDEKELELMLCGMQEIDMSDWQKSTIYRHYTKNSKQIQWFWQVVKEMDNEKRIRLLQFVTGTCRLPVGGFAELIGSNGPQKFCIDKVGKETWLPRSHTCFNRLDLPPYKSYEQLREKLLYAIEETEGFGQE

Compound: CCOC(=O)Cc1cn2cc(Cl)ncc2n1 [Compound 2, Ethyl 6-chloroimidazo[1,2-a]pyrazine-2-acetate]
relative activity, single-shot autoubiquitination (WWP2-FL; 1% DMSO): some decrease in activity

Compound: CCOC(=O)Cc1cn2cc(Cl)nc(Cl)c2n1 [Compound 4, Ethyl 6,8-Dichloroimidazo[1,2-a]pyrazine-2-acetate]
relative activity, single-shot autoubiquitination (WWP2-FL; 1% DMSO): some decrease in activity

Compound: CCOC(=O)CSc1nc2nc(Cl)cnc2[nH]1 [Compound 5, Ethyl 2-({5-chloro-1H-imidazo[4,5-b]pyrazine-2-yl}sulfanyl)acetate]
relative activity, single-shot autoubiquitination (WWP2-FL; 1% DMSO): some decrease in activity

Compound: CCOC(=O)CSc1nc2nc(Cl)c(Cl)nc2[nH]1 [Compound 6, Ethyl 2-({5,6-dichloro-1H-imidazo[4,5-b]pyrazine-2-yl}sulfanyl)-acetate]
IC50 (WWP1-L34H; [1]): 33.3 µM
IC50 (WWP1-L34H; [2]): 158 µM
relative autoubiquitination activity, single-shot (WWP2-FL; 1% DMSO): less than 50%
IC50 (WWP2-FL; [1]): < 100 µM and 69.8 µM
WWP2 IC50 (WWP2-FL; synthesised compound, WWP2-FL, 1% DMSO, 95% CI range in brackets, listed as 6/217913): Unstable^a
WWP2 IC50 (WWP2-FL; synthesised compound, WWP2-FL, 1% DMSO, 95% CI range in brackets, listed as NSC-217913): too weak to determine accurately
UbcH7 Activity (UbcH7): 92.2 ± 1.1%
UbcH7 Activity (UbcH7; listed as NSC-217913): more than 90%

Compound: N#CCSc1nc2nc(Cl)c(Cl)nc2[nH]1 [Compound 7, 2-({5,6-Dichloro-1H-imidazo[4,5-b]pyrazine-2-yl}sulfanyl)acetonitrile]
IC50 (WWP2-FL; [3]): 856 µM
WWP2 IC50 (WWP2-FL; [3]): only limited inhibition
UbcH7 Activity (UbcH7): 94.2 ± 0.8%

Compound: CCCC(C)Sc1nc2nc(Cl)c(Cl)nc2[nH]1 (stereo not drawn) [Compound 8, 2-({5,6-dichloro-1H-imidazo[4,5-b]pyrazine-2-yl}sulfanyl)pentane]
relative activity, single-shot autoubiquitination (WWP1-L34H; 1% DMSO): rather small decrease in relative activity
relative activity, single-shot autoubiquitination (WWP2-FL; 1% DMSO): rather small decrease in relative activity

Compound: O=C(CSc1nc2nc(Cl)c(Cl)nc2[nH]1)N1CCOCC1 [Compound 9, 2-({5,6-dichloro-1H-imidazo[4,5-b]pyrazine-2-yl}sulfanyl)acetylmorpholine]
relative activity, single-shot autoubiquitination (WWP1-L34H; 1% DMSO): failed to reach the activity threshold
IC50 (WWP2-FL; [3]): 622 µM

Compound: CCCC(=O)CSc1nc2nc(Cl)c(Cl)nc2[nH]1 [Compound 10]
relative activity, single-shot autoubiquitination (WWP1-L34H; 1% DMSO): rather small decrease in relative activity
relative activity, single-shot autoubiquitination (WWP2-FL; 1% DMSO): rather small decrease in relative activity

Compound: CCOC(=O)CNC(=O)CSc1nc2nc(Cl)c(Cl)nc2[nH]1 [Compound 12, Ethyl 2-({5,6-dichloro-1H-imidazo[4,5-b]pyrazine-2-yl}sulfanyl)acetamidoacetate]
relative activity, single-shot autoubiquitination (WWP1-L34H; 1% DMSO): better single-shot data
relative activity, single-shot autoubiquitination (WWP2-FL; 1% DMSO): better single-shot data

Compound: O=C(O)CCSc1nc2nc(Cl)c(Cl)nc2[nH]1 [Compound 13, 3-({5,6-Dichloro-1H-imidazo[4,5-b]pyrazine-2-yl}sulfanyl)propionic acid]
relative activity, single-shot autoubiquitination (WWP1-L34H; 1% DMSO): failed to reach the activity threshold
IC50 (WWP2-FL; [3]): 603 µM

Compound: COC(=O)[C@H](COC(C)(C)C)NC(=O)CSc1nc2nc(Cl)c(Cl)nc2[nH]1 [Compound 14, Methyl 3-(tert-butoxy)-2(S)-[2-({5,6-dichloro-1H-imidazo[4,5-b]pyrazine-2-yl}sulfanyl)acetamido]propionate]
relative activity, single-shot autoubiquitination (WWP1-L34H; 1% DMSO): rather small decrease in relative activity
relative activity, single-shot autoubiquitination (WWP2-FL; 1% DMSO): rather small decrease in relative activity

Compound: O=C(O)CSc1nc2nc(Cl)c(Cl)nc2[nH]1 [Compound 15, ({5,6-dichloro-1H-imidazo[4,5-b]pyrazine-2-yl}sulfanyl)acetic acid]
IC50 (WWP1-L34H; [2]): 375 µM
IC50 (WWP2-FL; [3]): 666 µM
WWP2 IC50 (WWP2-FL; [3]): only weakly
UbcH7 Activity (UbcH7): 93.0 ± 1.0%
melting point: 219.1 to 220.7 °C

Compound: O=C(O)CNC(=O)CSc1nc2nc(Cl)c(Cl)nc2[nH]1 [Compound 16, 2-({5,6-dichloro-1H-imidazo[4,5-b]pyrazine-2-yl}sulfanyl)acetamidoacetic acid]
relative activity, single-shot autoubiquitination (WWP1-L34H; 1% DMSO): better single-shot data
relative activity, single-shot autoubiquitination (WWP2-FL; 1% DMSO): better single-shot data

Compound: O=C(CSc1nc2nc(Cl)c(Cl)nc2[nH]1)N[C@@H](CO)C(=O)O [Compound 17, 3-hydroxy-2(S)-[({5,6-dichloro-1H-imidazo[4,5-b]pyrazine-2-yl}sulfanyl)acetamido]propanoic acid]
UbcH7 Activity (UbcH7): 88.8 ± 0.7%

Compound: CCOC(=O)CSc1nc2nccnc2[nH]1 [Compound 20, Ethyl 2-({1H-imidazo[4,5-b]pyrazine}sulfanyl-2-yl)acetate]
relative activity, single-shot autoubiquitination (WWP1-L34H; 1% DMSO): reducing relative activity

Compound: CCOC(=O)CSc1nc2cncnc2[nH]1 [Compound 21, Ethyl 2-({9H-imidazo[4,5-d]pyrimidine}sulfan-8-yl)acetate]
relative activity, single-shot autoubiquitination (WWP1-L34H; 1% DMSO): reducing relative activity

Compound: Nc1nc2nc(Br)cnc2s1 [Compound 26, 5-bromothiazolo[4,5-b]pyrazine-2-amine]
relative activity, single-shot autoubiquitination (WWP2-FL; 1% DMSO): some decrease in activity

Compound: Cc1ccc(C=C2C(Cl)=C(Cl)C(Cl)=C2Cl)cc1 [NSC-26112]
relative autoubiquitination activity, single-shot (WWP2-FL; 1% DMSO): less than 50%

Compound: Ethyl 2-[({imidazo[4,5-c]pyridine}sulfan-2-yl-5N-(ethyl-2-acetate))]acetate [Compound 23]
relative activity, single-shot autoubiquitination (WWP1-L34H; 1% DMSO): reducing relative activity

The remaining lines, values ahead:

relative autoubiquitination activity, single-shot (WWP1-L34H; 1% DMSO): less than 50%
IC50 (WWP1-L34H; [1]): 397 µM
Compound: O=C(/C=C/c1ccccc1Cl)c1ccc(O)cc1 [NSC-13151]

relative autoubiquitination activity, single-shot (WWP2-FL; 1% DMSO): less than 50%
IC50 (WWP2-FL; [1]): 513 µM
Compound: O=[N+]([O-])c1cc([N+](=O)[O-])c2cccnc2c1O [NSC-57103]

relative autoubiquitination activity, single-shot (WWP1-L34H; 1% DMSO): less than 50%
IC50 (WWP2-FL; [1]): 49.1 µM
UbcH7 Activity (UbcH7): 62.5 ± 2.4%
Compound: COc1cc(-c2ccc(Nc3ccccc3C(=O)O)c(OC)c2)ccc1Nc1ccccc1C(=O)O [NSC-73735]

relative autoubiquitination activity, single-shot (WWP1-L34H; 1% DMSO): less than 50%
IC50 (WWP1-L34H; [1]): < 100 µM and 92.4 µM
IC50 (WWP2-FL; [1]): 256 µM
UbcH7 Activity (UbcH7): 7.5 ± 0.6%
Compound: CCc1oc2ccccc2c1C(=O)c1cc(Br)c(O)c(Br)c1 [NSC-85433]

relative autoubiquitination activity, single-shot (WWP1-L34H; 1% DMSO): less than 50%
Compound: NC(=Nc1nc(-c2ccccn2)cc2ccccc12)c1ccccn1 [NSC-637578]
